target: T1, Neutrophil elastase enzyme (HNE) (Homo sapiens, UniProt P08246); assay: Neutrophil elastase inhibitor activity; format: biochemical; conditions: read-out: Degree of HNE inhibition (Mean)
T1 sequence (P08246 30-267): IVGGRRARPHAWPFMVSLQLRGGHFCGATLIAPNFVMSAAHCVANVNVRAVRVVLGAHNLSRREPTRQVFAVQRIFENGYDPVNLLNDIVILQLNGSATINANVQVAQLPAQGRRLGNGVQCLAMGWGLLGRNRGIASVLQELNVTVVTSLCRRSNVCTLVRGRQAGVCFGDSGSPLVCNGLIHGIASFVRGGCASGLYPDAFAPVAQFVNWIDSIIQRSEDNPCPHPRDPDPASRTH

Row | inhibition at 0.1 µM | inhibition at 1 µM | inhibition at 10 µM | inhibition at 50 µM | inhibition at 100 µM | Structure (SMILES)
1 | 12% | 16.7% | 24.6% | 25.8% | 26.7% | O=C(CC1C(=O)c2ccccc2C1=O)NNC(=S)N=Cc1cccc([N+](=O)[O-])c1 [IDC7, 2-(2-(1,3-Dioxo-2,3-dihydro-1H-inden-2-yl)acetyl)-N-(3-nitrobenzylidene)hydrazine-1-carbothioamide]
2 | 18.6% | 21.6% | 28.7% | 30.1% | 36.5% | NNC(=O)CC1C(=O)c2ccccc2C1=O [IDH1, 2-(1,3-Dioxo-2,3-dihydro-1H-inden-2-yl)acetohydrazide]
3 | 96.2% | 98.5% | 98.6% | 98.5% | 99.8% | CC(C)(C)C(=O)Oc1ccc(S(=O)(=O)Nc2ccccc2C(=O)NCC(=O)O)cc1 [Sivelestat, reference compound]
4 | 16.3% | 18.9% | 21.5% | 24.8% | 28.8% | NC(=S)NNC(=O)CC1C(=O)c2ccccc2C1=O [IDC2, 2-(2-(1,3-Dioxo-2,3-dihydro-1H-inden-2-yl)acetyl)hydrazine-1-carbothioamide]
